Experimental data taken from ChEMBL document CHEMBL1649318, “Chromosomally encoded blaCMY-2 located on a novel SXT/R391-related integrating conjugative element in a Proteus mirabilis clinical isolate” (2010).
≈ marks a conversion by molar mass, not a printed value.

Key:
Escherichia coli [1] = assay: Antimicrobial activity against Escherichia coli TUM4670 by broth dilution method; type: functional
Escherichia coli [2] = assay: Antimicrobial activity against Escherichia coli TUM4672 by broth dilution method
Proteus mirabilis [3] = assay: Antimicrobial activity against Proteus mirabilis TUM4660 by broth dilution method; type: functional
Escherichia coli [4] = assay: Antimicrobial activity against Escherichia coli ML4909 by broth dilution method; type: functional
Escherichia coli [5] = assay: Antimicrobial activity against Escherichia coli ML4901 by broth dilution method; type: functional
Escherichia coli [6] = assay: Antimicrobial activity against Escherichia coli ML4909 by broth dilution method in presence of beta-lactamase inhibitor clavulanic acid; type: functional
Proteus mirabilis [7] = assay: Antimicrobial activity against Proteus mirabilis TUM4660 by broth dilution method in presence of beta-lactamase inhibitor clavulanic acid; type: functional
Escherichia coli [8] = assay: Antimicrobial activity against Escherichia coli TUM4670 by broth dilution method in presence of beta-lactamase inhibitor clavulanic acid
Escherichia coli [9] = assay: Antimicrobial activity against Escherichia coli ML4901 by broth dilution method in presence of beta-lactamase inhibitor clavulanic acid; type: functional
Escherichia coli [10] = assay: Antimicrobial activity against Escherichia coli TUM4672 by broth dilution method in presence of beta-lactamase inhibitor clavulanic acid
Proteus mirabilis [11] = assay: Antimicrobial activity against Proteus mirabilis TUM4660 by disk diffusion method in presence of 300 ug 3-aminophenyl-boronic acid; type: functional
Escherichia coli [12] = assay: Antimicrobial activity against Escherichia coli TUM4670 by broth dilution method in presence of beta-lactamase inhibitor Tazobactam; type: functional
Escherichia coli [13] = assay: Antimicrobial activity against Escherichia coli ML4909 by broth dilution method in presence of beta-lactamase inhibitor Tazobactam; type: functional
Escherichia coli [14] = assay: Antimicrobial activity against Escherichia coli TUM4672 by broth dilution method in presence of beta-lactamase inhibitor Tazobactam; type: functional
Proteus mirabilis [15] = assay: Antimicrobial activity against Proteus mirabilis TUM4660 by broth dilution method in presence of beta-lactamase inhibitor Tazobactam; type: functional
Escherichia coli [16] = assay: Antimicrobial activity against Escherichia coli ML4901 by broth dilution method in presence of beta-lactamase inhibitor Tazobactam; type: functional

## COc1cc(Cc2cnc(N)nc2N)cc(OC)c1OC [TRIMETHOPRIM]
Escherichia coli [1]
  MIC: ≤ 0.06 µg/mL
Escherichia coli [2]
  MIC: ≤ 0.06 µg/mL
Proteus mirabilis [3]
  MIC: 4 µg/mL (≈ 13.8 µM)
Escherichia coli [4]
  MIC: 0.12 µg/mL (≈ 0.413 µM)
Escherichia coli [5]
  MIC: ≤ 0.06 µg/mL

## O=C(O)c1cn(C2CC2)c2cc(N3CCNCC3)c(F)cc2c1=O [CIPROFLOXACIN]
Escherichia coli [1]
  MIC: ≤ 0.06 µg/mL
Escherichia coli [2]
  MIC: ≤ 0.06 µg/mL
Proteus mirabilis [3]
  MIC: 0.12 µg/mL (≈ 0.362 µM)
Escherichia coli [4]
  MIC: ≤ 0.06 µg/mL
Escherichia coli [5]
  MIC: ≤ 0.06 µg/mL

## C[C@@H](O)[C@H]1C(=O)N2C(C(=O)O)=C(SCCNC=N)C[C@H]12 [IMIPENEM ANHYDROUS]
Escherichia coli [1]
  MIC: 0.25 µg/mL (≈ 0.835 µM)
Escherichia coli [2]
  MIC: 0.25 µg/mL (≈ 0.835 µM)
Proteus mirabilis [3]
  MIC: 8 µg/mL (≈ 26.7 µM)

## CO/N=C(\C(=O)N[C@@H]1C(=O)N2C(C(=O)[O-])=C(C[N+]3(C)CCCC3)CS[C@H]12)c1csc(N)n1
Escherichia coli [1]
  MIC: 1 µg/mL (≈ 2.08 µM)
Escherichia coli [2]
  MIC: 2 µg/mL (≈ 4.16 µM)
Proteus mirabilis [3]
  MIC: 2 µg/mL (≈ 4.16 µM)
Escherichia coli [4]
  MIC: ≤ 0.06 µg/mL

## CO/N=C(\C(=O)N[C@@H]1C(=O)N2C(C(=O)O)=C(COC(C)=O)CS[C@H]12)c1csc(N)n1 [CEFOTAXIME]
Escherichia coli [6]
  MIC: ≤ 0.06 µg/mL
Escherichia coli [1]
  MIC: 16 µg/mL (≈ 35.1 µM)
Escherichia coli [2]
  MIC: 32 µg/mL (≈ 70.3 µM)
Proteus mirabilis [3]
  MIC: 8 µg/mL (≈ 17.6 µM)
Escherichia coli [4]
  MIC: ≤ 0.06 µg/mL
Proteus mirabilis [7]
  MIC: 16 µg/mL
Escherichia coli [8]
  MIC: 32 µg/mL
Escherichia coli [5]
  MIC: ≤ 0.06 µg/mL
Escherichia coli [9]
  MIC: ≤ 0.06 µg/mL
Escherichia coli [10]
  MIC: 64 µg/mL

## CC(C)(O/N=C(\C(=O)N[C@@H]1C(=O)N2C(C(=O)[O-])=C(C[n+]3ccccc3)CS[C@H]12)c1csc(N)n1)C(=O)O [CEFTAZIDIME]
Escherichia coli [6]
  MIC: 0.12 µg/mL
Escherichia coli [1]
  MIC: 128 µg/mL (≈ 234 µM)
Escherichia coli [2]
  MIC: 128 µg/mL (≈ 234 µM)
Proteus mirabilis [3]
  MIC: 16 µg/mL (≈ 29.3 µM)
Escherichia coli [4]
  MIC: 0.25 µg/mL (≈ 0.457 µM)
Proteus mirabilis [7]
  MIC: 16 µg/mL
Escherichia coli [8]
  MIC: 32 µg/mL
Escherichia coli [5]
  MIC: 0.25 µg/mL (≈ 0.457 µM)
Proteus mirabilis [11]
  diameter of the inhibition zone (DIZ): >5 mm
Escherichia coli [9]
  MIC: ≤ 0.06 µg/mL
Escherichia coli [10]
  MIC: 64 µg/mL

## GENTAMICIN
Escherichia coli [1]
  MIC: 1 µg/mL
Proteus mirabilis [3]
  MIC: 1 µg/mL
Escherichia coli [4]
  MIC: 2 µg/mL
Escherichia coli [5]
  MIC: 2 µg/mL

## CC1(C)S[C@@H]2[C@H](NC(=O)[C@H](N)c3ccc(O)cc3)C(=O)N2[C@H]1C(=O)O [AMOXICILLIN]
Escherichia coli [6]
  MIC: 2 µg/mL
Escherichia coli [1]
  MIC: > 128 µg/mL
Escherichia coli [2]
  MIC: > 128 µg/mL
Proteus mirabilis [3]
  MIC: > 128 µg/mL
Escherichia coli [4]
  MIC: 2 µg/mL (≈ 5.47 µM)
Proteus mirabilis [7]
  MIC: > 128 µg/mL
Escherichia coli [8]
  MIC: > 128 µg/mL
Escherichia coli [5]
  MIC: 4 µg/mL (≈ 10.9 µM)
Escherichia coli [9]
  MIC: 4 µg/mL
Escherichia coli [10]
  MIC: > 128 µg/mL

## CCN1CCN(C(=O)N[C@@H](C(=O)N[C@@H]2C(=O)N3[C@@H]2SC(C)(C)[C@@H]3C(=O)O)c2ccccc2)C(=O)C1=O [PIPERACILLIN]
Escherichia coli [12]
  MIC: > 128 µg/mL
Escherichia coli [13]
  MIC: 2 µg/mL
Escherichia coli [14]
  MIC: > 128 µg/mL
Escherichia coli [1]
  MIC: > 128 µg/mL
Proteus mirabilis [15]
  MIC: 16 µg/mL
Escherichia coli [2]
  MIC: > 128 µg/mL
Proteus mirabilis [3]
  MIC: > 128 µg/mL
Escherichia coli [4]
  MIC: 2 µg/mL (≈ 3.86 µM)
Escherichia coli [16]
  MIC: 2 µg/mL
Escherichia coli [5]
  MIC: 2 µg/mL (≈ 3.86 µM)

## CO[C@@]1(NC(=O)Cc2cccs2)C(=O)N2C(C(=O)O)=C(COC(N)=O)CS[C@@H]21 [CEFOXITIN]
Escherichia coli [1]
  MIC: 128 µg/mL (≈ 299 µM)
Escherichia coli [2]
  MIC: > 128 µg/mL
Proteus mirabilis [3]
  MIC: 128 µg/mL (≈ 299 µM)
Escherichia coli [4]
  MIC: 4 µg/mL (≈ 9.36 µM)
Escherichia coli [5]
  MIC: 2 µg/mL (≈ 4.68 µM)
